These results are taken from US8741843B2, “Compositions and methods for inducing angiogenesis” (priority 2006, dated 2014).

Entries after “also recorded” stand apart in the source; their conditions may differ.

Test [1] concerns endothelial cells (HUVEC). In words: Migration of endothelial cells under hypoxia (Chemicon QCM 96-well Migration Assay). Type of test: cell-based, human. The note with it: 5 hours hypoxia, 10 ng/ml. The protocol: FIG. 6 is a graph depicting migration of endothelial cells under hypoxia conditions. Endothelial cells (25,000) were incubated in endothelial cells growth medium free supplements in the migration chamber. ADOPep1 (SEQ ID NO:2), 2 (SEQ ID NO:3) and 3 (SEQ ID NO:4) were added to the feeder tray of the migratory kit at 1, 10 and 100 ng/ml for 5 hours hypoxia. Results were determined by a fluorescence ELISA reader and expressed as increase in percentage migration in Relative fluorescence Units.
FIGS. 26a-b are graphs depicting induction of endothelial cell migration under hypoxia by the ADOPEP motifs. Endothelial cells were incubated for 5 hours under hypoxia conditions in the presence of increasing concentrations of ADOPep1 (red line), peptide motif A (dark blue line), peptide motif B (green line) or peptide motif C (light blue line) and the migration of endothelial cells was detected. FIG. 26a—experiment 1; FIG. 26b—experiment 2.
Endothelial cell migration was evaluated by the Chemicon QCM 96-well Migration Assay (Chemicon International, Calif., USA) according to manufacturer's instructions. This kit utilizes a membrane with an 8 μm pore size. Migratory cells on the bottom of the insert membrane are dissociated from the membrane when incubated with cell detachment buffer provided by the kit. […] For the migration assay, HUVEC from passage 3 were incubated in endothelial cell (EC) growth medium free of supplements. After trypsinization, 25,000 EC were incubated in the migration chamber. ADOPeps were added at concentrations of 1, 10 and 100 ng/ml in the feeder tray for chemoattractant migration assay. Time of incubation was 5 hours for endothelial cells under hypoxic conditions. Results were determined in a Fluorescent ELISA reader at 480/520 nm.

The test system of another test is ERK½. In words: ERK½ phosphorylation in endothelial cells under hypoxia (Western blot, densitometry). Type of test: cell-based, human. The note with it: for percent adjusted volume of pERK band: FIG. 31, cord 1, 10 ng/ml; for ERK½ phosphorylation (in words): endothelial cells under hypoxia; for ERK½ phosphorylation (in words) / incubation time of maximal ERK phosphorylation (densitometry, data not shown): 10 ng/ml; for incubation time of maximal ERK phosphorylation (densitometry, data not shown): hypoxia. The protocol: FIGS. 30a-b are Western blot analyses depicting induction of phosphorylation of ERK by ADoPep1 and Motif A. Endothelial cells under starvation conditions and 5 hours hypoxia were incubated for 5 (lanes 2 and 6), 20 (lanes 3 and 7), 30 (lanes 4 and 8) and 60 (lanes 5 and 9) minutes with 10 ng/ml ADoPep1 (Lanes 2-5) or Motif A (lanes 6-9) peptides or remained under hypoxia without a further incubation with a peptide (lane 1). After incubation, lysates were prepared, subject to SDS-PAGE and blotting on a nitrocellulose membrane. Western Blot analysis was performed using anti-Phospho ERK½ antibody. […] FIG. 30a—Experiment 1; FIG. 30b—Experiment 2. The percent adjusted volume as determined by a densitometric analysis software to compare net band densities was as follows: FIG. 30a, lane 1-4.5, lane 2-9.3, lane 3-13.7, lane 4-13.3, lane 5-11.2, lane 6-10.7, lane 7-12.4, lane 8-12.3 and lane 9-12.4; FIG. 30b, lane 1-4.21, lane 2-12.4, lane 3-12.5, lane 4-14.8, lane 5-10.9, lane 6-14.9, lane 7-9.8, lane 8-12.7 and lane 9-7.8.
FIG. 31 is a Western blot analysis depicting the level of phosphorylated ERK (pERK) in endothelial cells activated for 20 minutes with ADOPep1 and motif A and inhibited by pERK-inhibitor peptide. Endothelial cells (from cord 1) under starvation conditions and 5 hours hypoxia were incubated with 10 ng/ml ADOPep1 (lanes 3 and 4) or motif A (lanes 1 and 2) peptides in the presence (lanes 2 and 4) or absence (lanes 1 and 3) of p-ERK-inhibitor peptide (Santa Cruz). For control, the endothelial cells under starvation conditions and 5 hours hypoxia (lane 5) were also incubated with the p-ERK-inhibitor peptide (lane 6). […] The percent adjusted volume as determined by a densitometric analysis software to compare net band densities was as follows: lane 1-19, lane 2-14, lane 3-14, lane 4-8.8, lane 5-11, lane 6-2.1.
FIGS. 32a-b are Western blot analyses depicting the effect of ADOPeps on the level of phosphorylated ERK. Endothelial cells (EC) from cord 1 (FIG. 32a) or cord 2 (FIG. 32b) under hypoxia (5 hours) were incubated for 20 or 30 minutes with 10 ng/ml of AdoPep1, AdoPep2 and AdoPep3 or remained untreated (i.e., under hypoxia without any peptide). Western Blot analyses of samples cell lysates were performed with anti Phospho ERK antibody on nitrocellulose membranes. […] The percent adjusted volume as determined by a densitometric analysis software to compare net band densities was as follows: FIG. 32a, lane 1-11, lane 2-13, lane 3-11, lane 4-5, lane 5-11, lane 6-13, lane 7-17, lane 8-16.7; FIG. 32b, lane 1-17, lane 2-22, lane 3-19, lane 4-7, lane 5-8, lane 6-13, lane 7-14, lane 8-1.
In general terms: In western blotting, separated proteins are transferred to a membrane and probed.

In another test the target is GRP78 (Homo sapiens, UniProt P11021). In words: GRP78 receptor internalization in endothelial cells under hypoxia. Type of test: cell-based. More on the design: endogenous in cells; host or cells: HUVEC / endothelial cells from umbilical cords, under normoxia or hypoxia. The note with it: 10 ng/ml, after 5 minutes of incubation. The protocol:
FIG. 29 is a graph depicting GRP78 receptor internalization response to ADOPep1 binding under hypoxic conditions. Endothelial cells were incubated under starvation conditions and hypoxia over night. Cells were incubated with 10 ng/ml ADoPep1 for 5, 15, 30 and 60 minutes. For membrane staining biotinylated AdoePep1 at 5 micrograms was added to intact cells for 1 hour and replaced by streptavidin FITC. For intracellular staining, cells were fixed with 1% paraformaldehyde followed by 15 minutes incubation with 0.1% saponin. After washing of cells, biotinylated AdoPep was added to the cells. The samples were analyzed with a FACScan (Beckton Dickinson). Membrane staining is shown by the blue bars (results are expressed in percentages, as normalized to untreated cells); Mean intracellular staining is shown by the purple bars (results are expressed in mean fluorescence);

[2] abbreviates: FIG. 30a experiment 1, 10 ng/ml, 5 minutes, hypoxia alone 4.5.
The mark [3] stands for this setting: FIG. 30a experiment 1, 10 ng/ml, 20 minutes, hypoxia alone 4.5.
Setting [4] is: FIG. 30a experiment 1, 10 ng/ml, 30 minutes, hypoxia alone 4.5.
Where [5] appears, read: FIG. 30a experiment 1, 10 ng/ml, 60 minutes, hypoxia alone 4.5.
[6] abbreviates: FIG. 30b experiment 2, 10 ng/ml, 5 minutes, hypoxia alone 4.21.
The mark [7] stands for this setting: FIG. 30b experiment 2, 10 ng/ml, 20 minutes, hypoxia alone 4.21.
Setting [8] is: FIG. 30b experiment 2, 10 ng/ml, 30 minutes, hypoxia alone 4.21.
[9] abbreviates: FIG. 30b experiment 2, 10 ng/ml, 60 minutes, hypoxia alone 4.21.
The mark [10] stands for this setting: 20 minutes, absence of p-ERK-inhibitor peptide, hypoxia alone 11.
The mark [11] stands for this setting: 20 minutes, presence of p-ERK-inhibitor peptide.

Chain of GRP78 (P11021 19-654): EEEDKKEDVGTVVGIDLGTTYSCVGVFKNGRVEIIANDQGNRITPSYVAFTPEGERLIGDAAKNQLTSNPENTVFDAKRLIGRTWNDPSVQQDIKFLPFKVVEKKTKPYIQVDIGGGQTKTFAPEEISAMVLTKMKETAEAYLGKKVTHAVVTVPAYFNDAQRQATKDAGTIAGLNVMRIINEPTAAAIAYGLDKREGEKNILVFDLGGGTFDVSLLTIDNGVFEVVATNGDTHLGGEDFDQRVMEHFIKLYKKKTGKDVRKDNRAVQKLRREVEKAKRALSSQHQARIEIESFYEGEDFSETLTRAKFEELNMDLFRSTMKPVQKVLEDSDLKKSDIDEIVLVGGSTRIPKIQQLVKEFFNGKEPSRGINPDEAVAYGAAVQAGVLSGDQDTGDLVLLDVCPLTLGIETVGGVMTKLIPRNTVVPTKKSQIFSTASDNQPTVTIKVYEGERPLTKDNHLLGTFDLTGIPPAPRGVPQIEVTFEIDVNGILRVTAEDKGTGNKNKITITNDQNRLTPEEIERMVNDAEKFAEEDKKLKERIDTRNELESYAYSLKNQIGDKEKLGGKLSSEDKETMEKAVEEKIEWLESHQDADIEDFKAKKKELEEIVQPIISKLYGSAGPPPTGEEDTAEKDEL

As for “HWRRAHLLPRLP [ADOPep1, ADAM15 derived peptide, amino acids 286-297 of the metalloprotease domain]”, the “migration of endothelial cells” value is reported as “most significant increase in EC migration; also recorded: induced endothelial cell migration” in test [1] and “induced increase in percent of migration” in test [1] (listed as ADOPep 1). Besides, the “percent adjusted volume of phospho ERK½ band” value was determined as 9.3% with ERK½ (setting [2]); 13.7% in the test on ERK½ (setting [3]); 13.3% in the test with ERK½ (setting [4]); 11.2% with ERK½ (setting [5]); 12.4% in the test on ERK½ (setting [6]); 12.5% in the test with ERK½ (setting [7]). In addition, the “percent adjusted volume of phospho ERK½ band” value with ERK½ (setting [8]) was 14.8%; with ERK½ (setting [9]), 10.9%. For the same substance, the results for the “percent adjusted volume of pERK band” value in the test on ERK½ (setting [10]) and in the test on ERK½ (setting [11]) were 14% and 8.8%, respectively. Further, the “percent adjusted volume of phospho ERK band” value in the test with ERK½ (FIG. 32a cord 1, 10 ng/ml, 20 minutes, untreated 11, 13) amounted to 17%; in the test on ERK½ (FIG. 32a cord 1, 10 ng/ml, 30 minutes, untreated 11, 13), 16.7%; in the test with ERK½ (FIG. 32b cord 2, 10 ng/ml, 20 minutes, untreated 17), 22%; with ERK½ (FIG. 32b cord 2, 10 ng/ml, 30 minutes, untreated 8) it was 13%. Moreover, the “ERK½ phosphorylation (in words)” value in the test with ERK½ is on record as “significant increase in ERK½ phosphorylation; also recorded: induced ERK½ phosphorylation”; with ERK½ (listed as ADoPep1) it was “induction of ERK½ phosphorylation”. Also, in the test on ERK½, the “incubation time of maximal ERK phosphorylation (densitometry, data not shown)” value came to 20 min. Besides, in the test with GRP78, the GRP78 receptor internalization entry is “induced GRP78 receptor internalization”.
With “HWRRP [Motif A, 5 amino acid motif peptide]”, the “migration of endothelial cells” value in test [1] was “induced endothelial cell migration”. In addition, the “percent adjusted volume of phospho ERK½ band” value is on record as 10.7% in the test on ERK½ (setting [2]); 12.4% with ERK½ (setting [3]); 12.3% in the test with ERK½ (setting [4]); 12.4% in the test on ERK½ (setting [5]); 14.9% in the test with ERK½ (setting [6]); 9.8% in the test on ERK½ (setting [7]). In addition, the “percent adjusted volume of phospho ERK½ band” value with ERK½ (setting [8]) was 12.7%; in the test on ERK½ (setting [9]), 7.8%. Moreover, the “percent adjusted volume of pERK band” value is recorded as 19% in the test with ERK½ (setting [10]) and 14% in the test with ERK½ (setting [11]). Besides, the “ERK½ phosphorylation (in words)” value in the test on ERK½ was “significant increase in ERK½ phosphorylation; also recorded: induction of ERK½ phosphorylation”. The “incubation time of maximal ERK phosphorylation (densitometry, data not shown)” value in the test on ERK½ lay within 20 to 60 min.
